These results are taken from ChEMBL document CHEMBL3792365, “Dioxol and dihydrodioxin analogs of 2- and 3-phenylacetonitriles as potent anti-cancer agents with nanomolar activity against a variety of human cancer cells” (2016).

Molecules are shown by their SMILES.

Common to all, as to type: functional
A short description of assay [1]: Growth inhibition of human HL-60(TB) cells at 10 uM after 48 hrs by sulforhodamine B assay. The conditions noted are these: HL-60, 48 h, values are per cent of control.
Assay [2] is described as follows: Growth inhibition of human HOP92 cells at 10 uM after 48 hrs by sulforhodamine B assay. As to conditions: HOP-92, 48 h, values are per cent of control.
The next assay relates to NCI-H226. Put plainly: Growth inhibition of human NCI-H226 cells at 10 uM after 48 hrs by sulforhodamine B assay. As to conditions: NCI-H226, 48 h, values are per cent of control. Background: In SRB staining, fixed cells bind dye roughly in proportion to their protein.
The nature of assay [3]: Growth inhibition of human OVCAR3 cells at 10 uM after 48 hrs by sulforhodamine B assay. As to conditions: OVCAR-3, 48 h, values are per cent of control.
In a further assay the test system is HT-29. Put plainly: Growth inhibition of human HT-29 cells at 10 uM after 48 hrs by sulforhodamine B assay. As to conditions: HT-29, 48 h, values are per cent of control.
A short description of assay [4]: Growth inhibition of human PC3 cells at 10 uM after 48 hrs by sulforhodamine B assay. As to conditions: PC-3, 48 h, values are per cent of control.
A short description of assay [5]: Growth inhibition of human TK10 cells at 10 uM after 48 hrs by sulforhodamine B assay. The conditions noted are these: TK-10, 48 h, values are per cent of control.
A further assay deals with 786-0. The experiment in a line: Growth inhibition of human 786-0 cells at 10 uM after 48 hrs by sulforhodamine B assay. As to conditions: 786-0, 48 h, values are per cent of control.
Assay [6] is described as follows: Growth inhibition of human MOLT4 cells at 10 uM after 48 hrs by sulforhodamine B assay. The conditions noted are these: MOLT-4, 48 h, values are per cent of control.
Another assay relates to Malme-3M. The experiment in a line: Growth inhibition of human MALME-3M cells at 10 uM after 48 hrs by sulforhodamine B assay. As to conditions: values are per cent of control.
The nature of assay [7]: Growth inhibition of human RPMI8226 cells at 10 uM after 48 hrs by sulforhodamine B assay. The conditions noted are these: RPMI-8226, 48 h, values are per cent of control.
The nature of assay [8]: Growth inhibition of human SKOV3 cells at 10 uM after 48 hrs by sulforhodamine B assay. As to conditions: SK-OV-3, 48 h, values are per cent of control.
In another assay the test system is SK-MEL-2. The experiment in a line: Growth inhibition of human SK-MEL-2 cells at 10 uM after 48 hrs by sulforhodamine B assay. As to conditions: SK-MEL-2, 48 h, values are per cent of control.
In another assay the test system is MCF7. The experiment in a line: Growth inhibition of human MCF7 cells at 10 uM after 48 hrs by sulforhodamine B assay. As to conditions: MCF7, 48 h, values are per cent of control.
In the next assay the test system is NCI-H23. The experiment in a line: Growth inhibition of human NCI-H23 cells at 10 uM after 48 hrs by sulforhodamine B assay. As to conditions: NCI-H23, 48 h, values are per cent of control.
Assay [9] can be described thus: Growth inhibition of human SF295 cells at 10 uM after 48 hrs by sulforhodamine B assay. The conditions noted are these: SF-295, 48 h, values are per cent of control.
A further assay deals with CCRF-CEM. Put plainly: Growth inhibition of human CCRF-CEM cells at 10 uM after 48 hrs by sulforhodamine B assay. As to conditions: values are per cent of control.
A further assay deals with SR. The experiment in a line: Growth inhibition of human SR cells at 10 uM after 48 hrs by sulforhodamine B assay. The conditions noted are these: values are per cent of control.
Assay [10] is described as follows: Growth inhibition of human UACC257 cells at 10 uM after 48 hrs by sulforhodamine B assay. As to conditions: UACC-257, 48 h, values are per cent of control.

As for `N#C/C(=C\c1ccc2ccccc2n1)c1ccc2c(c1)OCO2`, the growth, % of control at 10 µM is 87.1% in assay [1]; 90.2% in assay [2]; 70.8% in the assay on NCI-H226; 63% in assay [3]; 71.9% in the assay with HT-29; 77.5% in assay [4]. The growth, % of control at 10 µM in [5] was 45%; in the assay with 786-0, 51.9%; in assay [6], 78.5%; with Malme-3M, 68.3%; in [7], 84.9%; in assay [8], 25.8%. In addition, the growth, % of control at 10 µM is 87.1% in the assay on SK-MEL-2; 84.6% with MCF7; 58.8% in the assay on NCI-H23; 64% in assay [9]; 89.7% in the assay with CCRF-CEM; 60.5% with SR.
Consider `COc1cc(/C=C(\C#N)c2ccc3c(c2)OCO3)cc(OC)c1OC`, for which the growth, % of control at 10 µM amounted to 88.6% in assay [1]; 97.5% in [10]; 101% with NCI-H226; 108% in [3]; 88.8% with HT-29; 88.7% in assay [4]. For the same molecule, the growth, % of control at 10 µM in [5] is 98.1%; in the assay on 786-0 it was 96.5%; in assay [6], 87.2%; with Malme-3M it was 98.9%; in assay [7], 88.5%; in assay [8] it was 103%. Also, the growth, % of control at 10 µM in the assay on SK-MEL-2 was found to be 90.2%; with NCI-H23, 94.5%; in assay [9] it was 96.1%; in the assay with CCRF-CEM it was 96.5%; in the assay with SR, 83.5%.
In the case of `COc1ccc(/C(C#N)=C/c2ccc3c(c2)OCO3)cc1`, the growth, % of control at 10 µM worked out at 66.6% in [1]; 93% in [2]; 86.6% in the assay on NCI-H226; 88.7% in assay [3]; 64.5% in the assay on HT-29; 81% in [4]. For the same molecule, the growth, % of control at 10 µM in assay [5] came out at 85.7%; in the assay with 786-0 it was 95.4%; in assay [6] it was 70.4%; in the assay on Malme-3M, 79.9%; in assay [7], 64.7%; in assay [8], 88.6%. Moreover, the growth, % of control at 10 µM in the assay on SK-MEL-2 was determined as 90.1%; in the assay on MCF7, 60.8%; with NCI-H23, 96.1%; in [9], 80.8%; with CCRF-CEM it was 72.1%; in the assay with SR, 39.3%.
For `N#C/C(=C\c1cccnc1Cl)c1ccc2c(c1)OCO2`, the growth, % of control at 10 µM in [1] worked out at 83.8%; in assay [10], 112%; with NCI-H226 it was 98.9%; in assay [3], 115%; with HT-29 it was 106%; in assay [4], 101%. Further, the growth, % of control at 10 µM amounted to 106% in assay [5]; 94% with 786-0; 107% with Malme-3M; 89.3% in assay [7]; 103% in assay [8]; 98.9% in the assay on SK-MEL-2. In addition, the growth, % of control at 10 µM in the assay with MCF7 came out at 112%; in the assay on NCI-H23, 97.2%; in assay [9], 110%; in the assay on CCRF-CEM it was 93.7%; in the assay on SR it was 92.8%.
Turning to `N#C/C(=C\c1ccc(Cl)c(Cl)c1)c1ccc2c(c1)OCO2`, the growth, % of control at 10 µM in assay [1] is 83.1%; in [10], 86.3%; with NCI-H226 it was 98.9%; in [3], 97.7%; with HT-29, 102%; in [4], 91.5%. Further, the growth, % of control at 10 µM in [5] amounted to 90.2%; in the assay on 786-0, 72.4%; in [6] it was 72.2%; in assay [7], 80.1%; in assay [8] it was 70.6%; in the assay on SK-MEL-2, 89.7%. Moreover, the growth, % of control at 10 µM in the assay with MCF7 is 79.9%; in the assay on NCI-H23, 88%; in assay [9], 77%; in the assay on CCRF-CEM it was 91.9%; in the assay on SR, 77.7%.
Regarding `N#C/C(=C\c1ccsc1)c1ccc2c(c1)OCO2`, the growth, % of control at 10 µM is 83.5% in [1]; 110% in [10]; 101% in the assay on NCI-H226; 103% in assay [3]; 102% with HT-29; 110% in [4]. Further, the growth, % of control at 10 µM came to 104% in [5]; 96.7% in the assay on 786-0; 79.7% in assay [6]; 114% in the assay with Malme-3M; 104% in [7]; 102% in assay [8]. For the same molecule, the growth, % of control at 10 µM in the assay on SK-MEL-2 turned out to be 106%; with MCF7, 87.1%; in the assay with NCI-H23 it was 106%; in [9], 101%; with CCRF-CEM it was 104%; in the assay with SR, 86.5%.
Regarding `COc1cc(/C=C(\C#N)c2ccc3c(c2)OCO3)cc(OC)c1`, the growth, % of control at 10 µM in [1] worked out at 64.5%; in assay [10] it was 97%; in the assay with NCI-H226, 99.8%; in [3], 103%; in the assay on HT-29, 92.4%; in assay [4] it was 97.3%. Moreover, the growth, % of control at 10 µM was determined as 95.6% in assay [5]; 94.5% in the assay with 786-0; 67.2% in [6]; 95.7% in the assay on Malme-3M; 89.4% in assay [7]; 101% in assay [8]. Further, the growth, % of control at 10 µM with SK-MEL-2 came out at 94.4%; in the assay on MCF7 it was 85.5%; with NCI-H23, 96.6%; in assay [9] it was 99.2%; in the assay on CCRF-CEM it was 83.4%; in the assay with SR, 82%.
For the molecule `COc1ccc(/C=C(\C#N)c2ccc3c(c2)OCO3)c(Cl)c1OC`, the growth, % of control at 10 µM was 106% in assay [10]; 85% with NCI-H226; 100% in assay [3]; 70.3% in the assay with HT-29; 87.6% in assay [5]; 84.8% with 786-0. In addition, the growth, % of control at 10 µM with Malme-3M came to 79.1%; in assay [8] it was 89.2%; with SK-MEL-2, 80.1%; in the assay on MCF7, 71.6%; in the assay with NCI-H23, 85%; in assay [9], 91.1%. The molecule also returned a growth, % of control at 10 µM in the assay with SR of 51.1%.
As to `N#C/C(=C\c1c(Cl)cccc1Cl)c1ccc2c(c1)OCO2`, the growth, % of control at 10 µM in assay [1] is 75%; in assay [10], 99.8%; with NCI-H226 it was 111%; in assay [3], 97.7%; in the assay with HT-29, 93.7%; in assay [4] it was 94.3%. For the same molecule, the growth, % of control at 10 µM in assay [5] was 81%; in the assay on 786-0, 95.6%; in assay [6] it was 61.2%; with Malme-3M it was 56.1%; in [7] it was 84.4%; in [8] it was 97.9%. In addition, the growth, % of control at 10 µM in the assay with SK-MEL-2 was found to be 90.6%; in the assay with MCF7, 93.7%; in the assay on NCI-H23, 93.7%; in assay [9], 95.6%; in the assay on CCRF-CEM, 86.7%; in the assay with SR, 77%.
